The subject of assay [1] is PS961. Kind of assay: Dynamic single-molecule sequencing, recognition by PS961. Format: binding, Planctomycetes.
Assay [2] deals with PS961. Kind of assay: NAA recognition-only single-molecule assay on chip with PS961. Format: binding, Planctomycetes. Conditions: 250 nM PS961. The source says: To expand the set of recognizable NAAs, N-end rule pathway proteins were investigated as a source of additional recognizers. In a comprehensive screen of diverse ClpS family proteins, a group of ClpS proteins from the bacterial phylum Planctomycetes with native binding to N-terminal leucine, isoleucine, and valine was discovered. […] The median PD of binding to peptides with N-terminal LAA, IAA, and VAA was 1.21, 0.28, and 0.21 s, respectively, in agreement with bulk characterization (FIG. 7C).
(§1) A second chip check was then performed. […] Data was recorded for 15 min.
The resulting regions are called recognition segments (RSs).

The target of assay [3] is T1, PhTET3 (Pyrococcus horikoshii, UniProt O59485).
T1 construct: His tag (inferred: purified as the recognizers, on Ni-NTA); made in house; host or cells: E. coli BL21(DE3)
T1 sequence (O59485 1-354): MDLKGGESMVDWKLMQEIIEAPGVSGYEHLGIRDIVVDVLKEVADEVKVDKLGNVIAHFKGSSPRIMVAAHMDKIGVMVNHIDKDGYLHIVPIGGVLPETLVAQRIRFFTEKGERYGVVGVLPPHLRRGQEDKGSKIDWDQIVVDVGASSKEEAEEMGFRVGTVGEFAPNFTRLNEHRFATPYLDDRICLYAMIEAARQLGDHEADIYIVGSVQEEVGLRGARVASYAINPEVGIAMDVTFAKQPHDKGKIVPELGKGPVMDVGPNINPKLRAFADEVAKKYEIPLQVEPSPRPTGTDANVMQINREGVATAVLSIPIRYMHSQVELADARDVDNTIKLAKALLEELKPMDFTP
In words: Aminopeptidase cleavage during dynamic sequencing with PhTET3. Format: biochemical, P. horikoshii.
From the text: The collected traces consisted of regions of distinct pulsing, which were referred to as recognition segments (RSs), separated by regions lacking recognition pulsing (non-recognition segments, NRSs). Analysis software was developed to automatically identify pulsing regions and transition points within traces (Methods). Traces began with recognition of phenylalanine with a median PD of 2.36 s (FIG. 2D), in agreement with the PD observed for FAA in recognition-only assays. This pattern terminated after aminopeptidase addition (on average 11 min after addition), and was followed by the ordered appearance of two RSs with median PDs of 0.25 s and 0.49 s (FIG. 2D), corresponding to the short and medium PDs obtained in YAA and WAA recognition-only assays.
as §1

For assay [4], the system named is PS610. In words: Dynamic single-molecule sequencing, recognition by PS610. Format: binding, A. tumefaciens.
Assay [5] addresses T2, PS621 (Kluyveromyces lactis, UniProt O60014, E174T/N105S/N176F/R116K/S153T/V146T).
T2 construct: PS621; […]
In words: Dynamic single-molecule sequencing, recognition by PS621. Format: binding. The note with it: citrulline at position 2.

In assay [6] the test system is PS1223. Kind of assay: Dynamic single-molecule sequencing, recognition by PS1223. Format: binding. The note with it: recognizer PS1223, recognition of the N-terminal amino acid. How it is done:
Sequencing reactions using the recognizers PS610 (FYW), PS1220 (R), and PS1223 (LIV) were performed separately for the QP706 and QP1073 peptide fragments. Each recognizer was labeled with a unique dye and/or unique number of dyes. A scatter plot of bin ratio v. pulse duration is shown for the QP706 peptide fragment in FIG. 18A and for the QP1073 peptide fragment in FIG. 18B. In the plot of FIG. 18A, three clusters corresponding to FLE, LEQ, and RFL segments are visible. […] In the plot of FIG. 18B, two clusters corresponding to FLE and LEQ segments are visible, but there is no cluster corresponding to RFL.
In this example, sequencing reactions were conducted for 4 pairs of unmodified and citrullinated peptides: QP1028 & QP1029, QP1030 & QP1031, QP1032 & QP1033, and QP707 & QP789. […] For the QP1028 & QP1029 and QP1030 & QP1031 pairs, sequencing reactions were conducted using the PS610 (FYW) recognizer. For the QP1032 & QP1033 and QP707 & QP789 pairs, sequencing reactions were conducted using the PS1223 (LIV) recognizer.

Square brackets hold non-standard residues; d marks the D form. Ends that are not written are not given here. Cit = NC(=O)NCCC[C@H](N)C(=O)O

Chain of PS961 (as listed by the source): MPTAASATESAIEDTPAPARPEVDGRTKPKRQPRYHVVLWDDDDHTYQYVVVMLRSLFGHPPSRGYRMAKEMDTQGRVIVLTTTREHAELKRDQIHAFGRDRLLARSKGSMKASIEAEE
Chain of PS1223 (as listed by the source): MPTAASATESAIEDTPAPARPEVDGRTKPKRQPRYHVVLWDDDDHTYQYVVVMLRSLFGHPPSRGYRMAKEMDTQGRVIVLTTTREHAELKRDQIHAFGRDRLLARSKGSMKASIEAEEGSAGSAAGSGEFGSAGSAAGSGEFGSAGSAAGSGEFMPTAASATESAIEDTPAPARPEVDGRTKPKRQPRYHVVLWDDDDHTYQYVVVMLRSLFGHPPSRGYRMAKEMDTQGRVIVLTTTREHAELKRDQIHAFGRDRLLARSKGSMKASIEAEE
T2 sequence (O60014 other isoform, or with tags, fused parts or gaps N105S/R116K/V146T/S153T/E174T/N176F): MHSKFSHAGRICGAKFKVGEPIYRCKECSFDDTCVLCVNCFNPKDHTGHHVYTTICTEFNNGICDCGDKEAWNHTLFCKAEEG

In the case of “IAA: peptide with N-terminal IAA; in b185 the N-terminal IAA state of LAQFASIAAYASDDD (not fully specified (C-terminus); also: C-terminal azidolysine conjugated to DNA-streptavidin linker)”, in assay [1] (peptide LAQFASIAAYASDDD, PS610 and PS961, PhTET2 and PhTET3), the “Median PD” value stood at 0.25 s. Besides, in assay [2], the “Median PD of binding” value worked out at 0.28 s.
With FAAWAAYAA [FAAWAAYAAAADDD], in assay [3], the “Termination of phenylalanine recognition pattern after aminopeptidase addition (average)” value was determined as 11 min. For the same substance, in assay [4] (PS610, PhTET3 added after 15 minutes), the “Median PD, recognition of phenylalanine (first RS)” value worked out at 2.36 s. In assay [4] (PS610 with PhTET3), the “Median PD, first RS appearing after phenylalanine” value is 0.25 s and the “Median PD, second RS appearing after phenylalanine” value is recorded as 0.49 s.
Turning to “LCitLAFAYPDDDK (L[Cit]LAFAYPDDDK) [QP789]”, in assay [1] (arginine or citrulline at position 2), the “Median PD of recognition of N-terminal leucine by PS961” value is 0.78 s. Further, the “N-terminal arginine recognition by PS621” value in assay [5] is on record as “eliminated”. Moreover, in assay [6], the “Pulse Width” value was found to be 0.92 s.

(Values after patent US20230213527A1, “COMPOSITIONS AND METHODS FOR POLYPEPTIDE ANALYSIS” (Quantum-Si Incorporated, priority 2021, published 2023).)
